Patent US11925679B2, “H3.3 CTL peptides and uses thereof” (The Regents of the University of California, priority 2015, dated 2024)

Columns and labels:
[1] = system: purified HLA-A2 class I molecules; assay: Competitive binding inhibition assay with purified HLA-A2 and radiolabeled probe peptide; design: species or system human; details: cell-free binding assay, FIG. 8A
[2] = system: HLA-A*0201+ donor-derived PBMCs; assay: In vitro stimulation of donor PBMCs with peptide, tetramer staining of CD8+ T-cells
Protocol: Peripheral blood mononuclear cells from an HLA-A ? + donor were stimulated in vitro with the H3.3.K27M peptide and evaluated for their reactivity against: (1A) HLA-A ? /H3.3.K27M-specific tetramer and anti-CD8 mAb, and (1B) T2 cells pulsed with the mutant or non-mutated H3.3 peptide by IFN-γ ELISA.
Induction and isolation of H3.3K27M-specific CTL clones. To generate dendritic cells, the plastic adherent cells from PBMCs were cultured in AIM-V medium (Invitrogen) supplemented with 1,000 units/mL recombinant human granulocyte macrophage colony-stimulating factor and 500 units/mL recombinant human IL-4 (rhIL-4; Cell Sciences) at 37° C. in a humidified CO2 (5%) incubator. Six days later, the immature dendritic cells were stimulated with recombinant human tumor necrosis factor-α, IL-6, and IL-1 (10 ng/mL each). Mature dendritic cells were then harvested on day 8, resuspended in AIM-V medium at 1×10^6 cells per mL with peptide (10 μg/mL), and incubated for 2 hours at 37° C. Populations of autologous CD8^+ T-cells were enriched from PBMCs using magnetic microbeads (Miltenyi Biotech). CD8^+ T-cells (2×10^6 per well) were co-cultured with 2×10^5 per well peptide-pulsed dendritic cells in 2 mL/well of AIM-V medium supplemented with 5% human AB serum, 10 units/mL rhIL-2 (R&D Systems, Minneapolis, Minn.), and 10 units/mL rhIL-7 (Cell Sciences) in each well of 24-well tissue culture plates. On day 15, lymphocytes were re-stimulated with autologous dendritic cells pulsed with peptide in AIM-V medium supplemented with 5% human AB serum, rhIL-2, and rhIL-7 (10 units/mL each).
HLA-A*0201-peptide tetramer staining. […] (SEQ ID NO:2) tetramer (H3.3K27M-tetramer) was produced by the National Institute of Allergy and Infectious Disease tetramer facility within the Emory University Vaccine Center (Atlanta, Ga.) using the peptide synthesized by A&A labs (San Diego; CA). […] Cells were then washed with FACS Buffer (PBS containing 1% FBS). For some experiments, T-cells were stained with tetramer, followed by anti-human CD8 APC (Biolegend, 344722) and anti-human CD69 FITC (eBioscience, 11-0699-42).

Row | Sequence | affinity to HLA-A*0201 relative to H3.3.K27M (26-35) [1] | CD8+tetramer+ population ([2]; FIG. 2A) | tetramer high subpopulation ([2]; FIG. 2A) | CD8+ cells bound to the HLA-A*0201-H3.3.K27M (26-35) tetramer ([2]; several weekly stimulation cycles in vitro)
1 | XMSAPSTGGV [Cit H3.3] | partially retains its affinity |  |  | 
2 | RMSAPSTGGV [H3.3.K27M (26-35)] |  | 64.1 % of total lymphocyte-gated cells | 2.4 % of total lymphocyte-gated cells | over 60%
